Test results: PubChem BioAssay AID651806 (Broad Institute, 2012)
Active and inactive are the calls of the source.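 How the source made its calls: active means AC50 no higher than twice the top valid tested dose, with signal falling as dose rises; inconclusive means flat fit with partial inhibition, or a poor-quality fit; inactive means the rest, plus effects in the rising direction.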

biological target: Kelch-like ECH-associated protein 1 (Homo sapiens) (UniProt Q14145); experiment: disruptors of Keap1/Nrf2 protein interaction – biochemical, fluorescence polarization, dry powder, set 3, dose response (AID 651806); settings: Keap1 Kelch/FITC-Nrf2 peptide fluorescence polarization
Sequence (Q14145 whole entry, looked up): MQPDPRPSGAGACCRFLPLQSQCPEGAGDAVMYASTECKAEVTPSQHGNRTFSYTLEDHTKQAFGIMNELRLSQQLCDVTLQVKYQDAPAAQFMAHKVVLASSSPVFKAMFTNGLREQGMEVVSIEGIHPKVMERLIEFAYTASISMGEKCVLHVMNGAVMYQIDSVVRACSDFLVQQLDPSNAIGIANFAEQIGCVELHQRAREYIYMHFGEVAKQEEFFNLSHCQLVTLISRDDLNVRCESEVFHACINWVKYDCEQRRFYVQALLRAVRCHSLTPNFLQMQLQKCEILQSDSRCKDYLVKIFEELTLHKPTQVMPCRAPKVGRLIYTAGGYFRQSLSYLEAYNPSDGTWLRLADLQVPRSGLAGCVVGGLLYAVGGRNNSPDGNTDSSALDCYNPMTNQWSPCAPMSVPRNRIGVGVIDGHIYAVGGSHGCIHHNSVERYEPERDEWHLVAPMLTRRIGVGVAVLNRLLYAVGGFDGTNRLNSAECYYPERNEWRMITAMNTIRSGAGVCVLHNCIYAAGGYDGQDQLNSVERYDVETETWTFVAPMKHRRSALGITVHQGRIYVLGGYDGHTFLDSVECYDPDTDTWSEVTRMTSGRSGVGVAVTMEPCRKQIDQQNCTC

AC50 | Structure (SMILES)
> 100 µM (inactive) | O=C(O)[C@H]1CCCC[C@H]1C(=O)N1CCC2=C(CCCC2)C1CN1C(=O)c2ccccc2C1=O (some centres not stated)
> 100 µM (inactive) | O=C(O)C1CCCCC1C(=O)N1CCc2ccccc2C1CN1C(=O)c2ccccc2S1(=O)=O (configuration not stated)
> 100 µM (inactive) | O=C(O)C1CCCCC1C(=O)N1CCc2ccccc2C1CN1C(=O)Cc2ccccc2C1=O (configuration not stated)

Second part, the compound before the results:

Structure (SMILES) | AC50
Cc1ccc(S(=O)(=O)Nc2cc(C(C(=O)OC(C)C)C(=O)C(F)(F)F)c(O)c3ccccc23)cc1 (configuration not stated) | > 100 µM (inactive)
Cc1ccccc1S(=O)(=O)Nc1cc(C(C(=O)OC(C)C)C(=O)C(F)(F)F)c(O)c2ccccc12 (configuration not stated) | > 100 µM (inactive)
Cc1ccc(S(=O)(=O)NC(=O)[C@@H]2c3ccccc3CCN2C(=O)[C@@H]2CCCC[C@@H]2C(=O)O)cc1 | > 100 µM (inactive)
Cc1cc(C)c(S(=O)(=O)Nc2cc(C(C(=O)OC(C)C)C(=O)C(F)(F)F)c(O)c3ccccc23)c(C)c1 (configuration not stated) | 14.7 µM
CC(C)OC(=O)C(C(=O)C(F)(F)F)c1cc(NS(=O)(=O)c2ccccc2)c2ccccc2c1O (configuration not stated) | > 100 µM (inactive)
CC(=O)Nc1cc(NS(=O)(=O)c2c(C)cc(C)cc2C)c2ccccc2c1O | > 100 µM (inactive)

same assay, conditions: Keap1 Kelch/FITC-Nrf2 peptide fluorescence polarization; at 12 µM (top of the series)

Structure (SMILES) | activity change, negative = inhibition
O=C1c2ccccc2C(=O)N1CC1c2ccccc2CCN1C(=O)Cc1ccccc1 (configuration not stated) | inactive

same assay, conditions: Keap1 Kelch/FITC-Nrf2 peptide fluorescence polarization; at 50 µM (top of the series)

activity change, negative = inhibition | Structure (SMILES)
inactive | O=C(O)[C@H]1CCCC[C@H]1C(=O)N1CCC2=C(CCCC2)C1CN1C(=O)c2ccccc2C1=O (some centres not stated)
inactive | COC(=O)C1CCCCC1C(=O)N1CCc2ccccc2C1CN1C(=O)c2ccccc2C1=O (configuration not stated)
inactive | O=C(NC[C@@H]1c2ccccc2CCN1C(=O)[C@@H]1CCCC[C@@H]1C(=O)O)OCC1c2ccccc2-c2ccccc21
inactive | NC(=O)[C@H]1CCCC[C@H]1C(=O)N1CCc2ccccc2[C@H]1CN1C(=O)c2ccccc2C1=O
inactive | O=C(O)CCC(=O)N1CCc2ccccc2C1CN1C(=O)c2ccccc2C1=O (configuration not stated)
inactive | O=C(O)/C=C\C(=O)N1CCc2ccccc2C1CN1C(=O)c2ccccc2C1=O (configuration not stated)
inactive | O=C(O)c1ccccc1C(=O)N1CCc2ccccc2C1CN1C(=O)c2ccccc2C1=O (configuration not stated)
inactive | O=C1c2ccccc2C(=O)N1CC1=NCCc2ccccc21
inactive | CCOC(=O)C(C(=O)OCC)c1cc(CN2C(=O)c3ccccc3C2=O)c2ccccc2n1
inactive | O=C(O)[C@H]1CCCC[C@H]1C(=O)N1CCc2ccccc2C1CCN1C(=O)c2ccccc2C1=O (some centres not stated)
inactive | O=C1c2ccccc2C(=O)N1C[C@@H]1c2ccccc2CCN1C(=O)C1CCCCC1
inactive | O=C(NC[C@@H]1c2ccccc2CCN1C(=O)[C@@H]1CCCC[C@@H]1C(=O)O)c1ccccc1CO
inactive | O=C(O)C1CCCCC1C(=O)N1CCc2ccccc2[C@H]1C(=O)NCCc1ccccc1 (some centres not stated)
inactive | COC(=O)[C@@H]1CCCC[C@@H]1C(=O)N1CCc2ccccc2[C@H]1CN1C(=O)c2ccccc2C1=O
inactive | O=C1c2ccccc2C(=O)N1C[C@@H]1c2ccccc2CCN1C(=O)OCc1ccccc1

Further lines, the compound ahead of its results:

Structure (SMILES) | activity change, negative = inhibition
Cc1ccc(S(=O)(=O)NC2=CC(=N[C@@H](C)C(=O)OC(C)(C)C)C(=O)c3ccccc32)c(C)c1 | inactive
Cc1cc(C)c(S(=O)(=O)Nc2cc(C(C(=O)OCc3ccccc3)C(=O)OCc3ccccc3)c(O)c3ccccc23)c(C)c1 | inactive
O=C(O)[C@H]1CCCC[C@H]1C(=O)N1CCc2ccccc2C1 (racemic) | inactive
Cc1cc(C)c(S(=O)(=O)Nc2nc(NCCO)nc3ccccc23)c(C)c1 | inactive
CC(C)CNc1nc(NS(=O)(=O)c2ccccc2)c2ccccc2n1 | inactive
O=C(NCCO)c1ccccc1C(=O)NC[C@@H]1c2ccccc2CCN1C(=O)C1CCCCC1C(=O)O (some centres not stated) | inactive
Cc1cc(C)c(S(=O)(=O)Nc2nc(N(C)C)nc3ccccc23)c(C)c1 | inactive
O=C(O)C1CCCCC1C(=O)N1CCc2ccccc2C1CN1C(=O)[C@H]2CCCC[C@H]2C1=O (some centres not stated) | inactive
CCOC(=O)C(C(=O)OCC)c1nc(NS(=O)(=O)c2c(C)cc(C)cc2C)c2ccccc2n1 | inactive
O=C(O)C1CCCCC1C(=O)N1CCc2ccccc2C1c1ccccc1 (configuration not stated) | inactive
O=S(=O)(Nc1nc(NCC2CCCCC2)nc2ccccc12)c1ccccc1 | inactive
C[C@@H](NC(=O)C1CCCC[C@H]1C(=O)O)c1ccccc1 (mixture of isomers) | inactive
